What was measured:
Test in all cases: greenhouse post-emergence herbicidal test
Format in all cases: in vivo
Settings in all cases: application rate 0.25 kg/ha
[1] = system: ALOMY (Alopercurus myosuroides)
Source text: (§1) The culture containers used were plastic flowerpots containing loamy sand with approximately 3.0% of humus as the substrate. The seeds of the test plants were sown separately for each species.
(§2) For the post-emergence treatment, the test plants were first grown to a height of 3 to 15 cm, depending on the plant habit, and only then treated with the active ingredients which had been suspended or emulsified in water. For this purpose, the test plants were either sown directly and grown in the same containers, or they were first grown separately as seedlings and transplanted into the test containers a few days prior to treatment.
(§3) Depending on the species, the plants were kept at 10-25° C. or 20-35° C. The test period extended over 2 to 4 weeks. During this time, the plants were tended, and their response to the individual treatments was evaluated.
(§4) Evaluation was carried out using a scale from 0 to 100. 100 means no emergence of the plants, or complete destruction of at least the aerial moieties, and 0 means no damage, or normal course of growth. A good herbicidal activity is given at values of at least 70 and a very good herbicidal activity is given at values of at least 85.
(§5) The herbicidal activity of the substituted pyridine compounds I-2 and I-13 according to this invention was tested in comparison with the corresponding pyrazine compounds Nos. C-11 and C-19 disclosed on page 48 of WO 2010/130970 (not of the invention). These comparative experiments were performed at an application rate of 0.25 kg/ha in a post-emergence treatment by following the same procedure as described above in the Use Examples. The results of Comparative Examples 1 and 2 are indicated below in Tables II and III.

AVEFA (Avena fatua) = system: AVEFA (Avena fatua)
Source text: as §1, §2, §3, §4, §5

[2] = system: ECHCG (Echinocloa crus-galli)
Source text: as §1, §2, §3, §4, §5

[3] = system: BRSNW (Brassica napus (winter))
Source text: as §1, §2, §3, §4, §5

[4] = system: CHEAL (Chenopodium album)
Source text: as §1, §2, §3, §4, §5

| Structure (SMILES) | herbicidal activity against ALOMY [1] | herbicidal activity against AVEFA (AVEFA (Avena fatua)) | herbicidal activity against ECHGG [2] | herbicidal activity against BRSNW [3] | herbicidal activity against CHEAL [4] |
| --- | --- | --- | --- | --- | --- |
| CC(C)(C)C(=O)OC1=C(c2ccccc2C(F)(F)F)S(=O)(=O)Cc2cccnc21 [I-8, 2,2-Dimethyl-propionic acid 6,6-dioxo-7-(2-trifluoromethyl-phenyl)-5,6-dihydro-thiopyrano[4,3-b]pyridin-8-yl ester] | good (A good herbicidal activity is given at values of at least 70) | – | – | – | – |
| O=S1(=O)Cc2cccnc2C(O)=C1c1ccccc1C(F)(F)F [I-2, 6,6-Dioxo-7-(2-trifluoromethyl-phenyl)-5,6-dihydro-thiopyrano[4,3-b]pyridin-8-ol] | very good (a very good herbicidal activity is given at values of at least 85) | very good (a very good herbicidal activity is given at values of at least 85) | very good (a very good herbicidal activity is given at values of at least 85) | – | – |
| O=S1(=O)Cc2cccnc2C(O)=C1c1c(Cl)cccc1Cl [I-13] | – | – | very good (a very good herbicidal activity is given at values of at least 85) | very good (a very good herbicidal activity is given at values of at least 85) | very good (a very good herbicidal activity is given at values of at least 85) |
| O=S1(=O)Cc2nccnc2C(O)=C1c1c(Cl)cccc1Cl [reference compound] | – | – | less than good | good (A good herbicidal activity is given at values of at least 70) | less than good |
| O=S1(=O)Cc2nccnc2C(O)=C1c1ccccc1C(F)(F)F [reference compound] | good (A good herbicidal activity is given at values of at least 70) | less than good | less than good | – | – |
